Results: the NIST ThermoML archive (doi:10.1016/j.jct.2006.03.002)

Experiment: molar heat capacity at constant pressure
Settings: 101.33 kPa, Crystal, Small sample (50 mg) DSC

[F-].[Na+] [sodium fluoride]
Settings | molar heat capacity at constant pressure [J/K/mol]
630.6 K | 58.08
645.6 K | 58.11
675.7 K | 59.55
690.6 K | 59.36
720.6 K | 58.15
735.5 K | 59.11
750.6 K | 58.85
765.6 K | 59.28
795.6 K | 58.36
825.5 K | 58.26
840.4 K | 58.49
855.6 K | 59.14
870.6 K | 58.37
885.5 K | 59.37
900.5 K | 59.7
907.5 K | 59.76
915.5 K | 60.11
922.3 K | 60.21
937.4 K | 60.58
945.5 K | 59.64
952.5 K | 59.98
960.6 K | 60.43
967.5 K | 60.92
975.4 K | 59.89
982.6 K | 60.11
990.5 K | 61.01
997.5 K | 60.91
1012.6 K | 61.02
1027.6 K | 60.56
1042.6 K | 61.86
1057.7 K | 61.63
1072.7 K | 62.08
1087.8 K | 62.41
1102.9 K | 62.25
